In brackets after ≈: the same amount, converted by molar mass. Where two headings read alike, the source gives them in different places.
How the values were obtained:
Mexican Bean Beetle = assay: Biological Method D: Foliar Insecticidal Activity Test, Mexican Bean Beetle test; type: in vivo, Epilachna varivestis; details: Epilachna varivestis, Mexican Bean Beetle
Boll Weevil [1] = assay: Biological Method D: Foliar Insecticidal Activity Test, boll weevil test; type: in vivo, Anthonomous grandis; details: Boll Weevil, compounds a-r
Two-Spotted Spider Mite = assay: Biological Method D: Foliar Insecticidal Activity Test, mite test; type: in vivo, Tetranychus urticae; set-up: key to LC50 TSM: I = inactive at concentration listed; details: Two-Spotted Spider Mite; for LC50: Tetranychus urticae
Green Peach Aphid [2] = assay: Biological Method D: Foliar Insecticidal Activity Test, aphid test; type: in vivo, Myzus persicae; set-up: key: I = inactive at concentration tested; details: compounds a-r
Description: (§1) Biological Method D: Foliar Insecticidal Activity Test
(§2) In evaluating the foliar insecticidal activity of the compounds of this invention against insects and mites, the following test procedures were employed.
(§3) Not all compounds were tested at each of the several concentrations stated above. Test concentrations of a compound were selected as those most likely to differentiate dose response of a particular compound toward a particular test insect.
(§4) Initial evaluations were made on one or more of the following pests:
(§5) For the aphid test, infested broccoli (Brassica oleracea italica var. DiCicco) leaves containing about 50 aphids were placed in a Petri dish lid on a moistened piece of cotton. The leaves were then sprayed to thorough wetness with the test solution using a rotating turntable, held for twenty-four hours and then the percentage killed was determined.
(§6) The mortalities obtained in this manner were plotted on logarithmic probability paper.
(§7) The rotating turntable consists of a fixed, continuously operating spray nozzle under which targets are rotated at a fixed speed and distance. If the target is a Petri dish (such as for the bean beetle, armyworm, mite, or aphid tests), the distance from the nozzle is 38.1 cm (15 inches). If the target is a Mason jar (such as for the boll weevil test), the distance from the nozzle is 17.8 cm (7 inches). The nozzle is located 8 inches from the rotating shaft. The targets on individual platforms revolve around the shaft at 1 revolution per 20 seconds but only a brief portion of this time occurs in the spray path. Targets pass only once under the nozzle and then are removed to drying hoods.
(§8) The nozzle used is a 1/4 JCO Spraying Systems (Wheaton, Illinois) air atomizing nozzle equipped with a No. 2850 fluid cap and a No. 70 air cap. At the 68.95 x 10³ Pa gauge (10 psig) air pressure used and with liquid siphon feed, 1.89 ℓ/hr [0.5 GPH (gallons per hour)] are delivered in a round spray pattern with a 21 degree spray angle. Targets are misted with spray droplets to the point that the droplets coalesce to form a uniform thin film insufficient to drown test organisms.

Southern Armyworm [3] = assay: Biological Method D: Foliar Insecticidal Activity Test, Southern Armyworm test; type: in vivo, Spodoptera eridania; set-up: key: I = inactive at concentration tested; details: compounds a-r
Description: as §1, §2, §3, §4
For the Mexican Bean Beetle and Southern armyworm tests, individual lima bean (Phaseolus limeniss var. Woods' Prolific) leaves were placed on moistened pieces of filter paper in Petri dishes. The leaves were then sprayed with the test solution using a rotating turntable and allowed to dry. The dishes were then infested with 10 third instar larvae of either the Mexican Been Beetle or the Southern Armyworm. The dishes were then covered. Percent mortality was determined for each species and spray concentration at 48 and 96 hours after treatment.
as §6, §7, §8

Boll Weevil [4] = assay: Biological Method D: Foliar Insecticidal Activity Test, boll weevil test; type: in vivo, Anthonomous grandis; set-up: key: I = inactive at concentration tested; details: compounds a-r
Description: as §1, §2, §3, §4
For the boll weevil test, 10 adult weevils were placed in a 0.24 ℓ (0.5 pint) glass Mason jar containing a small cube of apple. The weevils were confined to the jar by fiberglass screen mesh secured by a screw-type rim cap. The jars were then sprayed with the test solution using a rotating turntable; directing the spray through the mesh into the jar. The percentage killed was determined after forty-eight and ninety six hours.
as §6, §7, §8

[5] = system: southern corn rootworm, Diabrotica undecimpunctata howardi; assay: Biological Method A: Corn Rootworm Screening Test (treated non-aggressive soil); details: soil concentration giving 90% mortality, 10 days at 27°C
Boll Weevil [6] = assay: Biological Method D: Foliar Insecticidal Activity Test, boll weevil test; type: in vivo, Anthonomous grandis; set-up: key: I = inactive at concentration listed
Green Peach Aphid [7] = assay: Biological Method D: Foliar Insecticidal Activity Test, aphid test; type: in vivo, Myzus persicae; details: Myzus persicae, Green Peach Aphid
Description: as §1, §2, §3, §4, §5, §6, §7, §8

[8] = system: southern corn rootworm, Diabrotica undecimpunctata howardi; details: for foliar systemic nonagressive Method B crw % control at 0.56 kg/ha (0.5 lb/acre): percent control relative to infested check, from root damage ratings, 14 days post-spraying
Southern Armyworm [9] = assay: Biological Method D: Foliar Insecticidal Activity Test, Southern Armyworm test; type: in vivo, Spodoptera eridania; set-up: key: I = inactive at concentration listed
Southern Armyworm [10] = assay: as above; type: in vivo, Spodoptera eridania; details: Spodoptera eridania, Southern Armyworm
[11] = foliar, 48 hrs, compounds a-r, read-out: LC 50 BB 48 hrs.
[12] = foliar, 96 hrs, compounds a-r, read-out: LC 50 BB 96 hrs.
[13] = foliar, compounds a-r, read-out: LC 50 TSM
[14] = Method D foliar test, read-out: LC50 TSM
[15] = foliar, 48 hrs, compounds a-r, read-out: LC 50 AW 48 hrs.
[16] = foliar, 96 hrs, compounds a-r, read-out: LC 50 AW 96 hrs.

Row | Structure (SMILES) | LC50 (Mexican Bean Beetle; [11]) [µg/mL] | LC50 (Mexican Bean Beetle; [12]) [µg/mL] | LC50 (Two-Spotted Spider Mite; [13]) [µg/mL] | LC50 GPA (Green Peach Aphid [2]) | LC50 AW 48 hrs (Southern Armyworm [3]) | LC50 AW 96 hrs (Southern Armyworm [3]) | LC50 BW 48 hrs (Boll Weevil [4]) | LC50 BW 96 hrs (Boll Weevil [4]) | other results
1 | CCOP(=S)(NN(C(=O)OC)P(=S)(OCC)OCC)OCC [o] | 52 (≈ 132 µM) | 45 (≈ 114 µM) | 150 (≈ 380 µM) | I | I | I | I | – | LC50 BW 96 hrs (Boll Weevil [1]): 740 ppm
2 | COP(=S)(NN(C)P(=S)(OC)OC)OC [h] | – | – | – | I | I | I | I | I | –
3 | CCCOP(=S)(NN(C)P(=S)(OCC)OCC)OCCC [d] | 150 (≈ 396 µM) | 150 (≈ 396 µM) | 150 (≈ 396 µM) | I | I | I | I | I | –
4 | CCOP(=S)(OCC(C)(C)C)N(C)NP(=S)(OC)OC (stereo not shown) [i, N-(O,O-dimethylthiophosphoryl) N′-(O-ethyl O-neopentylthiophosphoryl) N′-methyl hydrazine] | – | – | 150 (≈ 412 µM) | I | I | I | I | I | –
5 | CCOP(=O)(NNP(=S)(OCC)OCC)OCC [Compound 2, reference compound] | – | – | – | – | – | – | – | – | primary nonagressive Method A crw LC90 [5]: 0.87 ppm; LC50 BW 48 hrs (Boll Weevil [6]): I; LC50 BW 96 hrs (Boll Weevil [6]): I; LC50 (Green Peach Aphid [7]; Method D foliar test): 150 µg/mL (≈ 468 µM); LC50 (Two-Spotted Spider Mite; [14]): 540 µg/mL (≈ 1690 µM); foliar systemic nonagressive Method B crw % control at 0.56 kg/ha (0.5 lb/acre) [8]: 0%; LC50 AW 48 hrs (Southern Armyworm [9]): I; LC50 AW 96 hrs (Southern Armyworm [9]): I
6 | CCOP(=O)(SC(C)CC)N(C)NP(=S)(OCC)OCC(C)(C)C (stereo not shown) [k] | – | 52 (≈ 124 µM) | – | – | I | I | I | I | LC50 (Green Peach Aphid [7]; foliar, compounds a-r): 300 µg/mL (≈ 713 µM)
7 | CCOP(=S)(NN(C)P(=S)(OCC)OCC)OCC [a, N,N′-bis-(O,O-diethylthiophosphoryl) N-methyl hydrazine] | 500 (≈ 1430 µM) | 420 (≈ 1200 µM) | 150 (≈ 428 µM) | – | – | – | I | I | LC50 (Green Peach Aphid [7]; foliar, compounds a-r): 150 µg/mL (≈ 428 µM); LC50 (Southern Armyworm [10]; [15]): 150 µg/mL (≈ 428 µM); LC50 (Southern Armyworm [10]; [16]): 150 µg/mL (≈ 428 µM)
8 | CCOP(=S)(NN(C)P(=S)(OCC)OC(C)C)OCC (stereo not shown) [q] | 300 (≈ 823 µM) | 72 (≈ 198 µM) | – | I | I | I | – | I | –
9 | CCOP(=S)(NN(C)P(=S)(OCC)OCC)OCC(C)(C)C (stereo not shown) [j] | – | – | – | I | I | I | I | I | –
10 | CCOP(=O)(NN(C)P(=S)(OC)OC)SC(C)CC (stereo not shown) [l, N-(O,O-dimethylthiophosphoryl) N'-(O-ethyl S-secbutyl chloro phosphoryl) N-methyl hydrazine] | – | – | 660 (≈ 1880 µM) | I | I | I | I | – | LC50 BW 96 hrs (Boll Weevil [1]): 740 ppm
11 | CCOP(=S)(NN(C)P(=S)(OC)OC)OCC(C)(C)C (stereo not shown) [r] | – | – | – | I | I | I | – | – | –
12 | CCOP(=O)(SC(C)CC)N(C)N(C)P(=S)(OC)OC (stereo not shown) [m] | 600 (≈ 1650 µM) | 38 (≈ 104 µM) | 150 (≈ 412 µM) | I | I | I | – | – | LC50 BW 48 hrs (Boll Weevil [1]): 740 ppm; LC50 BW 96 hrs (Boll Weevil [1]): 740 ppm
13 | CCCOP(=S)(NNP(=S)(OCC)SC(C)C)OCCC (stereo not shown) [Compound 23] | – | – | – | – | – | – | – | – | primary nonagressive Method A crw LC90 [5]: 0.55 ppm; LC50 (Mexican Bean Beetle; Method D foliar test, 48 hrs, read-out: LC50 BB 48 hrs.): 62 µg/mL (≈ 157 µM); LC50 (Mexican Bean Beetle; Method D foliar test, 96 hrs, read-out: LC50 BB 96 hrs): 78 µg/mL (≈ 198 µM); LC50 BW 48 hrs (Boll Weevil [6]): I; LC50 BW 96 hrs (Boll Weevil [6]): I; LC50 (Green Peach Aphid [7]; Method D foliar test): 150 µg/mL (≈ 380 µM); LC50 (Two-Spotted Spider Mite; [14]): 150 µg/mL (≈ 380 µM); pest or weed control at 560 g/ha ([8]; Diabrotica undecimpunctata, in Zea mays, foliar, 336 h, read-out: foliar systemic nonagressive Method B crw % control at 0.56 kg/ha (0.5 lb/acre)): 16%; LC50 AW 48 hrs (Southern Armyworm [9]): I; LC50 AW 96 hrs (Southern Armyworm [9]): I
14 | CCCOP(=S)(NN(C)P(=S)(OCC)OCC)OCC (stereo not shown) [c, N-(O,O-diethylthiophosphoryl) N′-(O-ethyl O-propylthiophosphoryl) N-methyl hydrazine] | 150 (≈ 412 µM) | 150 (≈ 412 µM) | 150 (≈ 412 µM) | – | – | – | I | I | LC50 (Green Peach Aphid [7]; foliar, compounds a-r): 290 µg/mL (≈ 796 µM); LC50 (Southern Armyworm [10]; [15]): 150 µg/mL (≈ 412 µM); LC50 (Southern Armyworm [10]; [16]): 150 µg/mL (≈ 412 µM)
15 | CCOP(=S)(OCC)N(C)N(C)P(=S)(OCC)OC(C)C (stereo not shown) [b, N-(O,O-diethylthiophosphoryl) N′-(O-ethyl O-isopropylthiophosphoryl) N,N′-dimethyl hydrazine] | 150 (≈ 396 µM) | 150 (≈ 396 µM) | 5.5 (≈ 14.5 µM) | – | I | I | – | – | LC50 BW 48 hrs (Boll Weevil [1]): 740 ppm; LC50 BW 96 hrs (Boll Weevil [1]): 150 ppm; LC50 (Green Peach Aphid [7]; foliar, compounds a-r): 36 µg/mL (≈ 95.1 µM)
16 | CCOP(=S)(NNP(=S)(OCC)OCC)OCC [Compound 1, reference compound] | – | – | – | – | – | – | – | – | primary nonagressive Method A crw LC90 [5]: 0.5 ppm; LC50 BW 48 hrs (Boll Weevil [6]): I; LC50 BW 96 hrs (Boll Weevil [6]): I; LC50 (Green Peach Aphid [7]; Method D foliar test): 500 µg/mL (≈ 1490 µM); LC50 TSM (Two-Spotted Spider Mite; Method D foliar test): I; foliar systemic nonagressive Method B crw % control at 0.56 kg/ha (0.5 lb/acre) [8]: 16%; LC50 (Southern Armyworm [10]; Method D foliar test, 96 hrs, read-out: LC50 AW 96 hrs): 500 µg/mL (≈ 1490 µM); LC50 AW 48 hrs (Southern Armyworm [9]): I
17 | CCOP(=S)(OCC)N(C)NP1(=S)OCC(C)(C)CO1 [n] | 150 (≈ 414 µM) | 150 (≈ 414 µM) | – | I | I | I | I | I | –

Source: patent publication EP0437336B1, “Biophosphoryl hydrazines and their use as pesticides” (priority 1990, dated 1991)
